Each structure is given as a SMILES string.

This assay addresses T1, human cathepsin K (Homo sapiens, UniProt P43235).
T1 construct: The proform of cathepsin K was converted to mature cathepsin K by brief exposure to pH 4; made in house; host or cells: baculovirus; Trichoplusia ni High Five cells (virus raised in Sf-9)
T1 sequence (P43235 115-329): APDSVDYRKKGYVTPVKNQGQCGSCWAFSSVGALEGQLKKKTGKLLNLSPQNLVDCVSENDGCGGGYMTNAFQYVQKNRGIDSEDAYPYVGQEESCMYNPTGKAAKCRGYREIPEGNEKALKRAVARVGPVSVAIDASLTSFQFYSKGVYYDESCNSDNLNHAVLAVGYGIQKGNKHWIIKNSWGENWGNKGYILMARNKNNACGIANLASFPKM
Kind of assay: Cathepsin K inhibition assay, human recombinant enzyme, fluorogenic substrate Cbz-Phe-Arg-AMC. It is filed as biochemical. The conditions noted are these: Table 1, human cathepsin K; read-out: h Cat K IC50. Here is the method: All assays for cathepsin K were carried out with human and rat recombinant enzyme. Assays for cathepsins S ? V were also carried out with human recombinant enzyme. Assays for human cathepsins B, H, and L were carried out with enzyme, purchased from Athens Research and Technology, Inc., prepared from human liver tissue. […] A stock substrate solution of Cbz-Phe-Arg-AMC was prepared at a concentration of 50 mM in dimethyl sulfoxide. This substrate was diluted into the assay for a final substrate concentration of 10 μM in the rat cathepsin K, human cathepsin K, and human cathepsin B assays; a final substrate concentration of 5 μM in the human cathepsin L assay; and a final substrate concentration of 2 μM in the human cathepsin V assay.
All assays contained 10% dimethyl sulfoxide. […] All assays were conducted at 30° C. Product fluorescence (excitation at 360 nm; emission at 440 nm, (except cathepsin H which used excitation at 340 nm; emission at 420 nm)) was monitored with a PerSeptive Biosystems Cytofluor II fluorescence plate reader. Product progress curves were generated over 2.3 h monitoring the formation of 7-amino-4-methylcoumarin product (or β-naphthalamide for cathepsin H).
Human and rat Cathepsin K:
Two liters of Spodoptera frugiperda (Sf-9) cells (ATCC) were grown in Grace's Supplemented medium (Life Technologies) supplemented with 2 g/L glucose, 10% fetal bovine serum (HyClone) and 0.1% pluronic F-68 (Life Technologies). […] The cells continued to grow for 72 h post-infection, before the virus was harvested by centrifugation at 1400×g for 30 min.
One and one-half liters of Trichoplusia ni (T. ni) High Five (™) cells [JRH Biosciences, Woodland, Calif. […] The cells were grown for 24 h at 28° C., 50 RPM, and 50% dissolved oxygen. […] Media were separated from cells at a rate of 1 L/min using the Centritech 100 ™ continuous-flow centrifuge (DuPont) operating at 200×g.
Protein Purification: Media (human and rat) were filtered through a Whatman 3 filter, and then loaded onto a 25 mL. Poros HS II (26 mm×47 mm) cation exchange column equilibrated in 25 mM sodium acetate at pH 5.5 (equilibration buffer). The column was washed until the absorbance reached the baseline value, and then the protein was eluted with a linear gradient from 0-2 M sodium chloride in the equilibration buffer. Column fractions were analyzed by SDS-PAGE, N-terminal sequencing, and mass spectrometry. Fractions containing the proform of cathepsin K were pooled and frozen at −80° C. The proform was concentrated in an Amicon Centriprep 10 and fractionated with a Superdex 75 column (26 mm×600 mm, Pharmacia) equilibrated in 400 mM sodium chloride, 25 mM sodium acetate at pH 5.5.
Cathepsin K Activation: The proform of cathepsin K was converted to mature cathepsin K by brief exposure to pH 4 in the presence of 5 mM L-cysteine. Typically, 5 mM L-cysteine was added to 10 mL of approximately 1 mg/mL procathepsin K. One mL of this solution was diluted ten-fold into 450 mM sodium acetate at pH 4.0 containing 5 mM L-cysteine. This solution was reacted at 23° C. for 2 min before neutralization with 2 mL, 1.8 M sodium acetate at pH 6.0. The neutralized sample was added to the remaining 9 mL of procathepsin K. The mixture was incubated at 4° C. for 2-3 days. The activated cathepsin K was chromatographed on a Poros HS II column as described above.
Potential inhibitors were evaluated using the progress curve method. Assays were carried out in the presence of variable concentrations of test compound. Reactions were initiated by addition of buffered solutions of inhibitor and substrate to enzyme. Data analysis was conducted according to one of two procedures depending on the appearance of the progress curves in the presence of inhibitors. […] Ki values were calculated from IC50 values using equation 2 assuming a competitive model.
Usually IC50 stands for the concentration that inhibits the measured activity by half. Take `CCCC[C@H](NC(=O)O[C@@H]1C(=O)OCC1(C)C)C(=O)C(=O)N[C@H](C)c1ccccc1` [Example 1, (3S)-4,4-dimethyl-2-oxotetrahydro-3-furanyl (1S)-1-(oxo([(1R)-1-phenylethyl]amino}acetyl)pentylcarbamate]: the concentration for half-maximal inhibition (IC50) was 1 to 10 nM.

`CNC(=O)NCCCC[C@H](NC(=O)O[C@@H]1C(=O)OCC1(C)C)C(=O)C(=O)N[C@H](C)c1ccccc1` [Example 2, (3S)-4,4-dimethyl-2-oxotetrahydro-3-furanyl (1S)-5-{[(methylamino)carbonyl]amino}-1-(oxo{[(1R)-1-phenylethyl]amino}acetyl)pentylcarbamate]: the half-maximal inhibitory concentration (IC50) is 1 to 10 nM.

On to `CCCC[C@H](NC(=O)OC1C(=O)OC[C@]1(C)CC)C(=O)C(=O)N[C@H](C)c1ccccc1` (stereo partly drawn) [Example 3, (4S)-4-ethyl-4-methyl-2-oxotetrahydro-3-furanyl (1S)-1-(oxo{[(1R)-1-phenylethyl]amino}acetyl)pentylcarbamate], for which the IC50 was 1 to 10 nM.

Take `CCCC[C@H](NC(=O)OC1C(=O)N(Cc2ccccc2)CC1(C)C)C(=O)C(=O)N[C@H](C)c1ccccc1` (stereo partly drawn) [Example 4, 1-Benzyl-4,4-dimethyl-2-oxo-3-pyrrolidinyl (1S)-1-(oxo{[(1R)-1-phenylethyl]amino}acetyl)pentylcarbamate]: the IC50 lay within 10 to 100 nM.

With `CCCC[C@H](NC(=O)OC1C(=O)N(C(=O)OCc2ccccc2)CC1(C)C)C(=O)C(=O)N[C@H](C)c1ccccc1` (stereo partly drawn) [Example 5, Benzyl 4,4-dimethyl-2-oxo-3-[({[(1S)-1-(oxo{[(1R)-1-phenylethyl]amino}acetyl)pentyl]amino}carbonyl)oxy]-1-pyrrolidinecarboxylate], the concentration for half-maximal inhibition (IC50) lay within 10 to 100 nM.

For the compound `CCCC[C@H](NC(=O)OC1C(=O)N(C)CC1(C)C)C(=O)C(=O)N[C@H](C)c1ccccc1` (stereo partly drawn) [Example 7, 1,4,4-trimethyl-2-oxo-3-pyrrolidinyl (1S)-1-(oxo{[(1R)-1-phenylethyl]amino}acetyl)pentylcarbamate], the IC50 was in the range of 10 to 100 nM.

In the case of `CCCCC(NC(=O)O[C@@H]1CN(Cc2ccccc2)CC1(C)C)C(=O)C(=O)N[C@H](C)c1ccccc1` (stereo partly drawn) [Example 8, (3S)-1-Benzyl-4,4-dimethylpyrrolidinyl 1-(oxo{[(1R)-1-phenylethyl]amino}acetyl)pentylcarbamate], the 50% inhibitory concentration (IC50) is 10 to 100 nM.

Regarding `CCCC[C@H](NC(=O)O[C@@H]1CN(C(=O)c2ccccc2)CC1(C)C)C(=O)C(=O)N[C@H](C)c1ccccc1` [Example 9], the half-inhibitory concentration (IC50) is 10 to 100 nM.

As for `CCCC[C@H](NC(=O)O[C@@H]1CN(C(C)=O)CC1(C)C)C(=O)C(=O)N[C@H](C)c1ccccc1` [Example 10, (3S)-1-Acetyl-4,4-dimethylpyrrolidinyl (1S)-1-(oxo{[(1R)-1-phenylethyl]amino}acetyl)pentylcarbamate], the 50% inhibitory concentration (IC50) lay within 10 to 100 nM.

For `CCCC[C@H](NC(=O)O[C@@H]1CN(C(=O)Cc2ccccc2)CC1(C)C)C(=O)C(=O)N[C@H](C)c1ccccc1` [Example 11, (3S)-4,4-Dimethyl-1-(phenylacetyl)pyrrolidinyl (1S)-1-(oxo{[(1R)-1-phenylethyl]amino}acetyl)pentylcarbamate], the IC50 fell in the range of 1 to 10 nM.

Turning to `CCCC[C@H](NC(=O)O[C@@H]1CN(C(=O)c2ccno2)CC1(C)C)C(=O)C(=O)N[C@H](C)c1ccccc1` [Example 12], the concentration for half-maximal inhibition (IC50) was in the range of 1 to 10 nM.

As for `CCCC[C@H](NC(=O)O[C@@H]1CN(C(=O)c2snnc2C)CC1(C)C)C(=O)C(=O)N[C@H](C)c1ccccc1` [Example 13, (3S)-4,4-Dimethyl-1-[(4-methyl-1,2,3-thiadiazol-5-yl)carbonyl]pyrrolidinyl (1S)-1-(oxo {[(1R)-1-phenylethyl]amino}acetyl)pentylcarbamate], the IC50 fell in the range of 10 to 100 nM.

For `CCCC[C@H](NC(=O)O[C@@H]1CN(C(=O)c2cc(C(C)(C)C)nn2C)CC1(C)C)C(=O)C(=O)N[C@H](C)c1ccccc1` [Example 14, (3S)-1-[(3-tert-Butyl-1-methyl-1H-pyrazol-5-yl)carbonyl]-4,4-dimethylpyrrolidinyl (1S)-1-(oxo{[(1R)-1-phenylethyl]amino}acetyl)pentylcarbamate], the half-inhibitory concentration (IC50) was 1 to 10 nM.

For the compound `CCCC[C@H](NC(=O)O[C@@H]1CN(C(=O)c2nn(-c3ccccc3)nc2C)CC1(C)C)C(=O)C(=O)N[C@H](C)c1ccccc1` [Example 15, (3S)-4,4-Dimethyl-1-[(5-methyl-2-phenyl-2H-1,2,3-triazol-4-yl)carbonyl]pyrrolidinyl (1S)-1-(oxo{[(1R)-1-phenylethyl]amino}acetyl)pentylcarbamate], the IC50 was 1 to 10 nM.

As for `CCCC[C@H](NC(=O)O[C@@H]1CN(C(=O)c2ccc3c(c2)OCO3)CC1(C)C)C(=O)C(=O)N[C@H](C)c1ccccc1` [Example 16, (3S)-1-(1,3-Benzodioxol-5-ylcarbonyl)-4,4-dimethylpyrrolidinyl (1S)-1-(oxo{[(1R)-1-phenylethyl]amino}acetyl)pentylcarbamate], the IC50 fell in the range of 1 to 10 nM.

`CCCC[C@H](NC(=O)O[C@@H]1CN(C(=O)c2cc3ccccc3s2)CC1(C)C)C(=O)C(=O)N[C@H](C)c1ccccc1` [Example 17, (3S)-1-(1-Benzothien-2-ylcarbonyl)-4,4-dimethylpyrrolidinyl (1S)-1-(oxo{[(1R)-1-phenylethyl]amino}acetyl)pentylcarbamate]: the half-maximal inhibitory concentration (IC50) was in the range of 1 to 10 nM.

In the case of `CCCC[C@H](NC(=O)O[C@@H]1CN(C(=O)c2ccc3ccccc3c2)CC1(C)C)C(=O)C(=O)N[C@H](C)c1ccccc1` [Example 18, (3S)-4,4-Dimethyl-1-(2-naphthoyl)pyrrolidinyl (1S)-1-(oxo {[(1R)-1-phenylethyl]amino}acetyl)pentylcarbamate], the IC50 lay within 1 to 10 nM.

Regarding `CCCC[C@H](NC(=O)O[C@@H]1CN(C(=O)c2cc(C)on2)CC1(C)C)C(=O)C(=O)N[C@H](C)c1ccccc1` [Example 19, (3S)-4,4-Dimethyl-1-[(5-methyl-3-isoxazolyl)carbonyl]pyrrolidinyl (1S)-1-(oxo {[(1R)-1-phenylethyl]amino}acetyl)pentylcarbamate], the half-maximal inhibitory concentration (IC50) was in the range of 10 to 100 nM.

As for `CCCC[C@H](NC(=O)O[C@@H]1CN(C(=O)c2ccc(-c3ccccc3)cc2)CC1(C)C)C(=O)C(=O)N[C@H](C)c1ccccc1` [Example 20], the half-maximal inhibitory concentration (IC50) lay within 1 to 10 nM.

`CCCC[C@H](NC(=O)O[C@@H]1CN(C(=O)c2ccc3[nH]ccc3c2)CC1(C)C)C(=O)C(=O)N[C@H](C)c1ccccc1` [Example 21, (3S)-1-(1H-Indol-5-ylcarbonyl)-4,4-dimethylpyrrolidinyl (1S)-1-(oxo{[(1R)-1-phenylethyl]amino}acetyl)pentylcarbamate]: the IC50 lay within 1 to 10 nM.

In the case of `CCCC[C@H](NC(=O)O[C@@H]1CN(C(=O)c2ccc3[nH]nnc3c2)CC1(C)C)C(=O)C(=O)N[C@H](C)c1ccccc1` [Example 22, (3S)-1-(1H-1,2,3-Benzotriazol-5-ylcarbonyl)-4,4-dimethylpyrrolidinyl (1S)-1-(oxo{[(1R)-1-phenylethyl]amino}acetyl)pentylcarbamate], the IC50 is 1 to 10 nM.

Regarding `CCCC[C@H](NC(=O)O[C@@H]1CN(C(=O)Cc2cccc(Oc3ccccc3)c2)CC1(C)C)C(=O)C(=O)N[C@H](C)c1ccccc1` [Example 23, (3S)-4,4-Dimethyl-1-[(3-phenoxyphenyl)acetyl]pyrrolidinyl (1S)-1-(oxo{[(1R)-1-phenylethyl]amino}acetyl)pentylcarbamate], the IC50 fell in the range of 10 to 100 nM.
